Assay results as given in article PMC9488896, “Hydroxamic Acid-Modified Peptide Library Provides Insights into the Molecular Basis for the Substrate Selectivity of HDAC Corepressor Complexes” (ACS Chemical Biology, 2022).
Like-named read-outs stand apart in the source and are kept apart here. Residues, ends and D or L forms follow the SMILES beside them. No end group written: not given here.

Assays:
Assay type in all cases: biochemical
[1] = biological target: T1, MiDAC complex (Homo sapiens, UniProt Q13547+Q6PJG2+Q9H147); test: Boc-Lys HDAC inhibition assay; conditions: HDAC complexes tables; 50 nM complex, 100 μM Boc-(Ac)Lys-AMC, 37 °C 30 min; technical replicates N = 2
T1 construct: made in house; host or cells: HEK293F
T1 sequence (Q13547 whole entry): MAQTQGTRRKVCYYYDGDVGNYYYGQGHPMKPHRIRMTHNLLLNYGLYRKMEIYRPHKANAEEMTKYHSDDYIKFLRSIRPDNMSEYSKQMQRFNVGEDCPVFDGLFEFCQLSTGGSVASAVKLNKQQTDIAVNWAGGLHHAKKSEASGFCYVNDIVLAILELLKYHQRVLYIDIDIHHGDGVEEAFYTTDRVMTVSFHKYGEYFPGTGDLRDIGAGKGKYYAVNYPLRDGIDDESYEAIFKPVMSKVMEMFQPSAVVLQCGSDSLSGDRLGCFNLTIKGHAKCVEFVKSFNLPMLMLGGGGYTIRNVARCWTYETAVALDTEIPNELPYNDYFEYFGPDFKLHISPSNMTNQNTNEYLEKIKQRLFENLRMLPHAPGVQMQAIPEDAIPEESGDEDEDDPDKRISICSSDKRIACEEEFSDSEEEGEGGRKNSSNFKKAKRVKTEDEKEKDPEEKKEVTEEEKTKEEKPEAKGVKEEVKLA
T1 sequence (Q6PJG2 628-887 partner limits assumed): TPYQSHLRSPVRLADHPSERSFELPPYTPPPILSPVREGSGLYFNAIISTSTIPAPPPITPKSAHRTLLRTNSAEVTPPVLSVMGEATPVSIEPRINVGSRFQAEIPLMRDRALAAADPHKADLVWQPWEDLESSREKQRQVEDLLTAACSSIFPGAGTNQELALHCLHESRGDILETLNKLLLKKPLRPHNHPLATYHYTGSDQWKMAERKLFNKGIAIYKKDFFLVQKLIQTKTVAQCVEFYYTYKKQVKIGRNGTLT
T1 sequence (Q9H147 whole entry partner): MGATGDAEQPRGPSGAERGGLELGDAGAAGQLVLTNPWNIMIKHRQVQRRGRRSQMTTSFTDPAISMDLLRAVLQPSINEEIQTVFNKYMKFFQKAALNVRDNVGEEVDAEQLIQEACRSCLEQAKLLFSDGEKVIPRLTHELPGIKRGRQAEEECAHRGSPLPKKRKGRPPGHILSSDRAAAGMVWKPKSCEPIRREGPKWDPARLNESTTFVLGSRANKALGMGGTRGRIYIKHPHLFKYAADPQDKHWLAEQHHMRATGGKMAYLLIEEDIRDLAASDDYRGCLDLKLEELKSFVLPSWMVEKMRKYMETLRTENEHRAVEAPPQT
Description: (§1) Finally, we directed our attention toward assessing how the results from the experiments with HMR would be common to the other known class I HDAC corepressor complexes. RERE, MIER1, CoREST, HMR, MiDAC, Sin3A, and SMRT were expressed and purified, and the concentrations were normalized based on the concentration of HDAC1 or HDAC3 (Figure 4A). We determined the potency of H3(23–29)K27Hd 12 and H4(12–18)K16Hd 16 against RERE, MIER1, CoREST, NuRD, MiDAC, Sin3A, and SMRT (Figure 4B). In addition, we repeated the H3(23–29)K27Hd alanine scan experiment for each of these complexes to assess whether or not the importance of Lys23 for maintaining potency against HMR was replicated across the other complexes (Figure 4C).
(§2) Inhibition assays with various peptide inhibitors were performed using a fluorescence-based assay. The inhibitor peptides were initially dissolved in 5% dimethyl sulfoxide (DMSO) at a stock concentration of 25 mM before being further diluted in the HDAC assay buffer (50 mM Tris/HCl, pH 7.5, 150 mM NaCl). Serial dilutions (1:3) of the inhibitor were prepared, starting at a concentration of 500 μM. HDAC complexes were diluted to a final concentration of 50 nM and incubated with the inhibitor for 20 min at rt. The Boc-(Ac)Lys-AMC substrate was added at a final concentration of 100 μM The final volume of the reaction was 50 μL. The reaction was incubated at 37 °C, 150 rpm, for 30 min, before a developer (50 mM Tris, pH 7.5, 100 mM NaCl, 10 mg/mL trypsin) was added. The reaction was incubated with the developer for 10 min before being measured (PerkinElmer, 2030 multilabel reader, VICTOR X5, excitation 335 nm, emission 460 nm). The absorbance of the buffer as the blank control was subtracted from the HDAC activity, and IC50 calculations were performed using the nonlinear regression log(inhibitor) vs response equation Y = bottom + (top – bottom)/(1+10^(X–Log IC50)) in Graphpad Prism 9.

[2] = biological target: T2, SMRT complex (HDAC3) (Homo sapiens, UniProt O15379); test: Boc-Lys HDAC inhibition assay; conditions: HDAC complexes tables; 50 nM complex, 100 μM Boc-(Ac)Lys-AMC, 37 °C 30 min; technical replicates N = 2
T2 construct: made in house; host or cells: HEK293F
T2 sequence (O15379 whole entry, species assumed, one chain of several): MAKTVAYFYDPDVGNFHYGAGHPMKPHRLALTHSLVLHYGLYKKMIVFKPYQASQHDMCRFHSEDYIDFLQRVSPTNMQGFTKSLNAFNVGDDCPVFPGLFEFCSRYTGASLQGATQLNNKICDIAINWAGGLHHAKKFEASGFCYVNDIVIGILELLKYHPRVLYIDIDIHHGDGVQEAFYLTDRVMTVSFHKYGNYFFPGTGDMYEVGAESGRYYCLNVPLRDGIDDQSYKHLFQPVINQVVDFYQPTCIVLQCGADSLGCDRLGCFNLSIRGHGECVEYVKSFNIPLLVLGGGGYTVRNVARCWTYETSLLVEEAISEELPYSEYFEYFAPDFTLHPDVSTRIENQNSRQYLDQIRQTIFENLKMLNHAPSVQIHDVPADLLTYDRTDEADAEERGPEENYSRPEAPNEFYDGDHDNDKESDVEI
Description: as §1, §2

[3] = biological target: T3, CoREST complex (Homo sapiens, UniProt Q13547+Q9UKL0); test: Boc-Lys HDAC inhibition assay; conditions: HDAC complexes tables; 50 nM complex, 100 μM Boc-(Ac)Lys-AMC, 37 °C 30 min; technical replicates N = 2
T3 construct: made in house; host or cells: HEK293F
T3 sequence (Q13547 whole entry, other chains not shown): as the sequence (Q13547 whole entry) above
T3 sequence (Q9UKL0 86-485 partner limits assumed, other chains not shown): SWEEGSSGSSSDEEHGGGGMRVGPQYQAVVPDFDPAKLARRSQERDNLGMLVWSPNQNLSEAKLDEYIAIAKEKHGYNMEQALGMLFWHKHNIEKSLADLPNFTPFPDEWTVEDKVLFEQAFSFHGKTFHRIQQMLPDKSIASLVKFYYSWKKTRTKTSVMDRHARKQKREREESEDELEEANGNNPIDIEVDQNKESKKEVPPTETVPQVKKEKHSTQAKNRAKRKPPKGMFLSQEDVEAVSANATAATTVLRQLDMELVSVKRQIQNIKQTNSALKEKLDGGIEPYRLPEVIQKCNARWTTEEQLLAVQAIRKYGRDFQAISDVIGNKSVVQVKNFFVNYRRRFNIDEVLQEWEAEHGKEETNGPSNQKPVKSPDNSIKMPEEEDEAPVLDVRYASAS
Description: as §1, §2

[4] = biological target: T4, RERE complex (Homo sapiens, UniProt Q13547+Q9P2R6); test: Boc-Lys HDAC inhibition assay; conditions: HDAC complexes tables; 50 nM complex, 100 μM Boc-(Ac)Lys-AMC, 37 °C 30 min; technical replicates N = 2
T4 construct: made in house; host or cells: HEK293F
T4 sequence (Q13547 whole entry): as the sequence (Q13547 whole entry) above
T4 sequence (Q9P2R6 whole entry partner): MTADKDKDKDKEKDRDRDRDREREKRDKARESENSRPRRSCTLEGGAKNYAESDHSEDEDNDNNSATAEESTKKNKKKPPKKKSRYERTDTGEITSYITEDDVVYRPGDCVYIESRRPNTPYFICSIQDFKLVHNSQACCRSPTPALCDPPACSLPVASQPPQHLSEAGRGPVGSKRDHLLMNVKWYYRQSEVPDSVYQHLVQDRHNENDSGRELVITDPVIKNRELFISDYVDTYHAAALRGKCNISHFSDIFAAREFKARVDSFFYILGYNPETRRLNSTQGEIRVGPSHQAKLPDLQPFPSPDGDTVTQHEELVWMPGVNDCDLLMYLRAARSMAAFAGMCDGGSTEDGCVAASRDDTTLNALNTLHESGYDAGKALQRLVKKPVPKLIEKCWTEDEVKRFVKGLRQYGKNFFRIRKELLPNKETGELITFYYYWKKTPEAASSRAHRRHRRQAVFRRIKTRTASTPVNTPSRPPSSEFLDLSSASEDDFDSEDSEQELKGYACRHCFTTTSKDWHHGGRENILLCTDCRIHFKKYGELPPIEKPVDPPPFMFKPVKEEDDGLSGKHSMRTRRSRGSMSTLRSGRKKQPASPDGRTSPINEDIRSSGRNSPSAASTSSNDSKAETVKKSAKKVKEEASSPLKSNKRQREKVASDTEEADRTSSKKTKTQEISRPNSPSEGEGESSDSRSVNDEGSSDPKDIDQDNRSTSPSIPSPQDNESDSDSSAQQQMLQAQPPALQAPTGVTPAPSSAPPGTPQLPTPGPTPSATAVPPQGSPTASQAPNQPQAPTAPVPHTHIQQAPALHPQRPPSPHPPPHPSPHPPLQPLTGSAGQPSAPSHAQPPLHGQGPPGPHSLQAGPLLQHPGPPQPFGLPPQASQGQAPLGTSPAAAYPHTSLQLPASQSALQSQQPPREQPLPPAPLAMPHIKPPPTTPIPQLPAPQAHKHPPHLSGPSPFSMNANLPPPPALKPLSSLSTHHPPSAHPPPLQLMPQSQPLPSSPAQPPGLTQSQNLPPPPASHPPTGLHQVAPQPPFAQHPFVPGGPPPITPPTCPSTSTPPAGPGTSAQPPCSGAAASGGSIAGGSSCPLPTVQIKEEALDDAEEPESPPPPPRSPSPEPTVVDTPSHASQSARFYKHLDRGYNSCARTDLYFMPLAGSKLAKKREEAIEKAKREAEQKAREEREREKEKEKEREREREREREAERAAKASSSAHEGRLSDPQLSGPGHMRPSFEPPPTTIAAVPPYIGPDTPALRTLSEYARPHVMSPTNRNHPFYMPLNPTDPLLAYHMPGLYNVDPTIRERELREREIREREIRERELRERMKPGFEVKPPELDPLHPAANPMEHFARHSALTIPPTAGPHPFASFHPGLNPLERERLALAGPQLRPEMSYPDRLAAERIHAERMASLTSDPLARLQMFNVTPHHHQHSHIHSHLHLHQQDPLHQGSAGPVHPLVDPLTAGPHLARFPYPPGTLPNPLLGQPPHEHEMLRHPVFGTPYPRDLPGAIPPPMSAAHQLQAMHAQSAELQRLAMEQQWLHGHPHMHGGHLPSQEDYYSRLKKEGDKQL
Description: as §1, §2

[5] = biological target: T5, MIER1 complex (Homo sapiens, UniProt Q13547+Q8N108); test: Boc-Lys HDAC inhibition assay; conditions: HDAC complexes tables; 50 nM complex, 100 μM Boc-(Ac)Lys-AMC, 37 °C 30 min; technical replicates N = 2
T5 construct: made in house; host or cells: HEK293F
T5 sequence (Q13547 whole entry): as the sequence (Q13547 whole entry) above
T5 sequence (Q8N108 whole entry partner): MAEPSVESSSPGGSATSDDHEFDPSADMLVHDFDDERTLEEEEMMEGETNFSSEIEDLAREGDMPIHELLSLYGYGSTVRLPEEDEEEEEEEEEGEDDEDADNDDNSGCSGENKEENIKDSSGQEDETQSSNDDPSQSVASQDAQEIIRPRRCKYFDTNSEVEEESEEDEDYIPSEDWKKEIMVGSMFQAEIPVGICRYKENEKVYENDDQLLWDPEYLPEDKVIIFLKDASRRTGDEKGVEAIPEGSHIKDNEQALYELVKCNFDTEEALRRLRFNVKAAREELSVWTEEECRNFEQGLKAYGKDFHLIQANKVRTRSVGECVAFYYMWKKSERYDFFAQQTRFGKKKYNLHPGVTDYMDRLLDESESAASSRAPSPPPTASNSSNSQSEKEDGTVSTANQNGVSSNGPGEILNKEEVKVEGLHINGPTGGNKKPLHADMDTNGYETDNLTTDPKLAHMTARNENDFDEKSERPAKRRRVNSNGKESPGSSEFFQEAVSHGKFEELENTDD
Description: as §1, §2

[6] = biological target: T6, Sin3A complex (Homo sapiens, UniProt Q13547); test: Boc-Lys HDAC inhibition assay; conditions: HDAC complexes tables; 50 nM complex, 100 μM Boc-(Ac)Lys-AMC, 37 °C 30 min; technical replicates N = 2
T6 construct: made in house; host or cells: HEK293F
Description: as §1, §2

[7] = biological target: T7, HDAC1/MTA1(aa: 162–546)/RBBP4 core NuRD complex (HMR) (Homo sapiens, UniProt Q09028+Q13330+Q13547); test: Boc-Lys HDAC inhibition assay; conditions: 50 nM complex, 20 min preincubation rt, 100 μM Boc-(Ac)Lys-AMC, 37 °C 30 min, technical replicates N = 2
T7 construct: made in house; host or cells: HEK293F
T7 sequence (Q13547 whole entry, species assumed): as the sequence (Q13547 whole entry) above
T7 sequence (Q13330 162-546 partner limits assumed, species assumed): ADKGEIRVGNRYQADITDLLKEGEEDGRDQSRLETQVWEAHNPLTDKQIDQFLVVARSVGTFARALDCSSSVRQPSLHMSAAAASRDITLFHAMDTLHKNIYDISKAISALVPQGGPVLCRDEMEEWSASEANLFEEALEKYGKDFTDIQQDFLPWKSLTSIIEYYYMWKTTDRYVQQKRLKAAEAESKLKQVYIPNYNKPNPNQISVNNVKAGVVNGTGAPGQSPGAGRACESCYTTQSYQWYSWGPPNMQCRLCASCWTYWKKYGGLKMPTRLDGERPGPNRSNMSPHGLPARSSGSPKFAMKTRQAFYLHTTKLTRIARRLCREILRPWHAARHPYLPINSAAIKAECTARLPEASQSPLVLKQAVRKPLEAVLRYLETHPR
T7 sequence (Q09028 whole entry partner, species assumed): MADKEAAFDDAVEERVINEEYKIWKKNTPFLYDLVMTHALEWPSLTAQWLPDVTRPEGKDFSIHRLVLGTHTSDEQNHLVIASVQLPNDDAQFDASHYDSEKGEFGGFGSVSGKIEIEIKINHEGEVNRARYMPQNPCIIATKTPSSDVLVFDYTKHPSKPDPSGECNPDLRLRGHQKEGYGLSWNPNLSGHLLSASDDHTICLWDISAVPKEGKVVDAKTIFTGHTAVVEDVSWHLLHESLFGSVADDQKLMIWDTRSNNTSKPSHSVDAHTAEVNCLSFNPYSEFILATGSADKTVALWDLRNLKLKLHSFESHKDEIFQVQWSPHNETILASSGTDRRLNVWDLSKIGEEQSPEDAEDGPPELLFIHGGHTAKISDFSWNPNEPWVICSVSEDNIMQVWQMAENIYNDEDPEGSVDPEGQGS
Procedure: as §2

[8] = biological target: T7, HDAC1/MTA1(aa: 162–546)/RBBP4 core NuRD complex (HMR); test: Caliper deacetylation assay (rate-of-turnover of substrate peptides); conditions: 125 nM HMR, 2 μM peptide; for Initial Rate of HMR against histone peptides: Rate (% conversion min-1): 50 mM Tris/HCl pH 7.5, 50 mM NaCl, 5% glycerol, linear fit of first 8 min, Caliper EZ Reader II, technical replicates N = 2
Procedure: The acetyl-lysine-containing library (compounds 1–8) was assessed for the initial rate at which they were deacetylated by the HMR complex (Figure 2A).
Reactions (30 μL) contained 125 nM HMR and 2 μM fluorescein-labeled peptides (peptides 1–8) in 50 mM Tris/HCl, pH 7.5, 50 mM NaCl, and 5% glycerol. The deacetylase reaction was recorded over a 30 min period, every 90 s, using a Caliper EZ Reader II System (Caliper Life Sciences, http://www.caliperls.com). The initial rates were calculated using the formula Y = Y-intercept + slope × X during the first 8 min of the reaction using GraphPad Prism 9.

[9] = alanine scan / H4K12Hd experiments, read-out: IC50 of HMR against H3 K27Hd, H4 K16Hd and H4K12Hd peptides
[10] = inhibitor library experiment, fluorescence, read-out: IC50 of HMR against histone peptide library

## CC(=O)N[C@@H](C)C(=O)N[C@@H](C)C(=O)N[C@@H](C)C(=O)N[C@@H](CCCNC(=N)N)C(=O)N[C@@H](CCCCCC(=O)NO)C(=O)N[C@@H](CO)C(=O)N[C@@H](C)C(N)=O [compound 21, H3(23–29)K23A K27Hd] (HELM PEPTIDE1{[ac].A.A.A.R.[O=C([C@H](CCCCCC(=O)[*:3])N[*:1])[*:2]].S.A.[am]}|CHEM1{[ON[*:1]]}$PEPTIDE1,CHEM1,6:R3-1:R1$$$V2.0)
[1]
  IC50: 18.1 µM
[2]
  IC50: 17.4 µM
[3]
  IC50: 18.3 µM
[4]
  IC50: 28.7 µM
[5]
  IC50: 20.1 µM
[6]
  IC50: 71.6 µM
[7]; [9]
  IC50: 26.2 µM

## CC(=O)N[C@@H](CO)C(=O)NCC(=O)N[C@@H](CCCNC(=N)N)C(=O)NCC(=O)N[C@@H](CCCCCC(=O)NO)C(=O)NCC(=O)NCC(=O)N[C@@H](CCCCN)C(N)=O [compound 13, H4 (1-8) K5Hd] (HELM PEPTIDE1{[ac].S.G.R.G.[O=C([C@H](CCCCCC(=O)[*:3])N[*:1])[*:2]].G.G.K.[am]}|CHEM1{[ON[*:1]]}$PEPTIDE1,CHEM1,6:R3-1:R1$$$V2.0)
[7]; [10]
  IC50: 0.633 µM

## H4(9–15)K12Ac (GLGK(Ac)GGA-NH2; UniProt P62805 10-16, looked up, fragment) [compound 7, acetyl-lysine-containing histone H4 tail substrate peptide, C-terminal amide]
[8]
  Initial Rate of HMR against histone peptides: Rate (% conversion min-1): 0.03 +/-0.020 % conversion min-1
[8]; 30 min time course, table of initial rates
  Km: Unstable

## CC(=O)N[C@@H](CCCCN)C(=O)NCC(=O)NCC(=O)N[C@@H](C)C(=O)N[C@@H](CCCCCC(=O)NO)C(=O)N[C@@H](CCCNC(=N)N)C(=O)N[C@@H](C)C(N)=O [compound 26, H4 (12-18) K16Hd H18A] (HELM PEPTIDE1{[ac].K.G.G.A.[O=C([C@H](CCCCCC(=O)[*:3])N[*:1])[*:2]].R.A.[am]}|CHEM1{[ON[*:1]]}$PEPTIDE1,CHEM1,6:R3-1:R1$$$V2.0)
[7]; [9]
  IC50: 1.15 µM

## H3(11–17)K14Ac (TGGK(Ac)APR-NH2; UniProt P68431 12-18, looked up, fragment) [compound 3, acetyl-lysine-containing histone H3 tail substrate peptide, C-terminal amide]
[8]
  Initial Rate of HMR against histone peptides: Rate (% conversion min-1): 0.10 +/- 0.027 % conversion min-1

## H4(12–18)K16Ac (KGGAK(Ac)RH-NH2; UniProt P62805 13-19, looked up, fragment) [compound 8, acetyl-lysine-containing histone H4 tail substrate peptide, C-terminal amide]
[8]
  Initial Rate of HMR against histone peptides: Rate (% conversion min-1): 1.08 +/-0.024 % conversion min-1

## H4(4–10)K8Ac (GKGGK(Ac)GL-NH2; UniProt P62805 5-11, looked up, fragment) [compound 6, acetyl-lysine-containing histone H4 tail substrate peptide, C-terminal amide]
[8]
  Initial Rate of HMR against histone peptides: Rate (% conversion min-1): 0.16 +/-0.016 % conversion min-1

## H3(6–12)K9Ac (TARK(Ac)STG-NH2; UniProt P68431 7-13, looked up, fragment) [compound 2, acetyl-lysine-containing histone H3 tail substrate peptide, C-terminal amide]
[8]
  Initial Rate of HMR against histone peptides: Rate (% conversion min-1): 0.40 +/- 0.013 % conversion min-1

## CC(=O)N[C@H](C(=O)NCC(=O)NCC(=O)N[C@@H](CCCCCC(=O)NO)C(=O)N[C@@H](C)C(=O)N1CCC[C@H]1C(=O)N[C@@H](CCCNC(=N)N)C(N)=O)[C@@H](C)O [compound 11, H3 (11-17) K14Hd] (HELM PEPTIDE1{[ac].T.G.G.[O=C([C@H](CCCCCC(=O)[*:3])N[*:1])[*:2]].A.P.R.[am]}|CHEM1{[ON[*:1]]}$PEPTIDE1,CHEM1,5:R3-1:R1$$$V2.0)
[7]; [10]
  IC50: 0.886 µM

## CC(=O)N[C@@H](CCCCN)C(=O)NCC(=O)NCC(=O)N[C@@H](C)C(=O)N[C@@H](CCCCCC(=O)NO)C(=O)N[C@@H](C)C(=O)N[C@@H](Cc1c[nH]cn1)C(N)=O [compound 25, H4 (12-18) K16Hd R17A] (HELM PEPTIDE1{[ac].K.G.G.A.[O=C([C@H](CCCCCC(=O)[*:3])N[*:1])[*:2]].A.H.[am]}|CHEM1{[ON[*:1]]}$PEPTIDE1,CHEM1,6:R3-1:R1$$$V2.0)
[7]; [9]
  IC50: 0.429 µM

## H3(1–7)K4Ac (ARTK(Ac)QTA-NH2; UniProt P68431 2-8, looked up, fragment) [compound 1, acetyl-lysine-containing histone H3 tail substrate peptide, C-terminal amide]
[8]
  Initial Rate of HMR against histone peptides: Rate (% conversion min-1): 0.18 +/- 0.009 % conversion min-1

## H4(1–8)K5Ac [compound 5]
[8]
  Initial Rate of HMR against histone peptides: Rate (% conversion min-1): 0.32 +/-0.065 % conversion min-1

## CC(=O)NCC(=O)N[C@@H](CCCCN)C(=O)NCC(=O)NCC(=O)N[C@@H](CCCCCC(=O)NO)C(=O)NCC(=O)N[C@@H](CC(C)C)C(N)=O [compound 14, H4 (4-10) K8Hd] (HELM PEPTIDE1{[ac].G.K.G.G.[O=C([C@H](CCCCCC(=O)[*:3])N[*:1])[*:2]].G.L.[am]}|CHEM1{[ON[*:1]]}$PEPTIDE1,CHEM1,6:R3-1:R1$$$V2.0)
[7]; [10]
  IC50: 0.431 µM

## CC(=O)N[C@@H](C)C(=O)N[C@@H](CCCNC(=N)N)C(=O)N[C@H](C(=O)N[C@@H](CCCCCC(=O)NO)C(=O)N[C@@H](CCC(N)=O)C(=O)N[C@H](C(=O)N[C@@H](C)C(N)=O)[C@@H](C)O)[C@@H](C)O [compound 9, H3 (1-7) K4Hd] (HELM PEPTIDE1{[ac].A.R.T.[O=C([C@H](CCCCCC(=O)[*:3])N[*:1])[*:2]].Q.T.A.[am]}|CHEM1{[ON[*:1]]}$PEPTIDE1,CHEM1,5:R3-1:R1$$$V2.0)
[7]; [10]
  IC50: 0.333 µM

## CC(=O)N[C@@H](CCCCN)C(=O)N[C@@H](C)C(=O)N[C@@H](C)C(=O)N[C@@H](C)C(=O)N[C@@H](CCCCCC(=O)NO)C(=O)N[C@@H](CO)C(=O)N[C@@H](C)C(N)=O [compound 22, H3(23–29)R26A K27Hd] (HELM PEPTIDE1{[ac].K.A.A.A.[O=C([C@H](CCCCCC(=O)[*:3])N[*:1])[*:2]].S.A.[am]}|CHEM1{[ON[*:1]]}$PEPTIDE1,CHEM1,6:R3-1:R1$$$V2.0)
[1]
  IC50: 0.203 µM
[2]
  IC50: 0.11 µM
[3]
  IC50: 0.287 µM
[4]
  IC50: 0.464 µM
[5]
  IC50: 0.334 µM
[7]; [9]
  IC50: 0.172 µM

## CC(=O)N[C@@H](C)C(=O)NCC(=O)NCC(=O)N[C@@H](C)C(=O)N[C@@H](CCCCCC(=O)NO)C(=O)N[C@@H](CCCNC(=N)N)C(=O)N[C@@H](Cc1c[nH]cn1)C(N)=O [compound 24, H4 (12-18) K16Hd K12A] (HELM PEPTIDE1{[ac].A.G.G.A.[O=C([C@H](CCCCCC(=O)[*:3])N[*:1])[*:2]].R.H.[am]}|CHEM1{[ON[*:1]]}$PEPTIDE1,CHEM1,6:R3-1:R1$$$V2.0)
[7]; [9]
  IC50: 3.25 µM

## H3(23–29)K27Ac (KAARK(Ac)SA-NH2; UniProt P68431 24-30, looked up, fragment) [compound 4, acetyl-lysine-containing histone H3 tail substrate peptide, C-terminal amide]
[8]
  Initial Rate of HMR against histone peptides: Rate (% conversion min-1): 0.79 +/-0.075 % conversion min-1
